PubChem BioAssay (NCI)
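Five concentrations, 48 hours, 96-well plates. TGI denotes the concentration required for complete inhibition of growth.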

Assays:
Experiment in all cases: NCI tumour cell line growth inhibition, 48 h
M14 melanoma = system: M14 melanoma
NCI/ADR-RES ovarian = system: NCI/ADR-RES ovarian
K-562 leukemia = system: K-562 leukemia
TK-10 renal = system: TK-10 renal
A498 renal = system: A498 renal
OVCAR-3 ovarian = system: OVCAR-3 ovarian
MDA-MB-435 = system: MDA-MB-435
BT-549 breast = system: BT-549 breast
U251 CNS = system: U251 CNS
HCC-2998 colon = system: HCC-2998 colon
OVCAR-8 ovarian = system: OVCAR-8 ovarian
DU-145 prostate = system: DU-145 prostate
SK-MEL-28 melanoma = system: SK-MEL-28 melanoma
SR leukemia = system: SR leukemia
ACHN renal = system: ACHN renal
MOLT-4 leukemia = system: MOLT-4 leukemia
SK-MEL-2 melanoma = system: SK-MEL-2 melanoma
NCI-H226 lung = system: NCI-H226 lung
HCT-15 colon = system: HCT-15 colon
PC-3 prostate = system: PC-3 prostate
UO-31 renal = system: UO-31 renal
SF-268 CNS = system: SF-268 CNS
CCRF-CEM leukemia = system: CCRF-CEM leukemia
SK-MEL-5 melanoma = system: SK-MEL-5 melanoma
UACC-62 melanoma = system: UACC-62 melanoma
HL-60(TB) leukemia = system: HL-60(TB) leukemia
UACC-257 melanoma = system: UACC-257 melanoma
NCI-H522 lung = system: NCI-H522 lung
786-0 renal = system: 786-0 renal
MDA-MB-231 breast = system: MDA-MB-231 breast
NCI-H460 lung = system: NCI-H460 lung
SK-OV-3 ovarian = system: SK-OV-3 ovarian
MDA-N = system: MDA-N
SF-295 CNS = system: SF-295 CNS
MCF7 breast = system: MCF7 breast
IGROV1 ovarian = system: IGROV1 ovarian
LOX IMVI melanoma = system: LOX IMVI melanoma
HOP-62 NSCLC = system: HOP-62 NSCLC
OVCAR-5 ovarian = system: OVCAR-5 ovarian
HOP-92 NSCLC = system: HOP-92 NSCLC
COLO 205 colon = system: COLO 205 colon
OVCAR-4 ovarian = system: OVCAR-4 ovarian
SN12C renal = system: SN12C renal
RPMI-8226 leukemia = system: RPMI-8226 leukemia
A549 NSCLC = system: A549 NSCLC
SNB-19 CNS = system: SNB-19 CNS
NCI-H23 lung = system: NCI-H23 lung
CAKI-1 renal = system: CAKI-1 renal
SF-539 CNS = system: SF-539 CNS
T-47D breast = system: T-47D breast
HT29 colon = system: HT29 colon
KM12 colon = system: KM12 colon
EKVX NSCLC = system: EKVX NSCLC
HCT-116 colon = system: HCT-116 colon
SNB-75 CNS = system: SNB-75 CNS
SW-620 colon = system: SW-620 colon
HS 578T breast = system: HS 578T breast
MALME-3M melanoma = system: MALME-3M melanoma

c1ccc2c(c1)CCN1CCc3ccccc3C1C2 (configuration not stated)
TGI (M14 melanoma): 82.1 µM
TGI (NCI/ADR-RES ovarian): > 100 µM
TGI (K-562 leukemia): > 100 µM
TGI (TK-10 renal): > 100 µM
TGI (A498 renal): > 100 µM
TGI (OVCAR-3 ovarian): > 100 µM
TGI (MDA-MB-435): > 100 µM
TGI (BT-549 breast): > 100 µM
TGI (U251 CNS): > 100 µM
TGI (HCC-2998 colon): > 100 µM
TGI (OVCAR-8 ovarian): > 100 µM
TGI (DU-145 prostate): > 100 µM
TGI (SK-MEL-28 melanoma): > 100 µM
TGI (SR leukemia): > 100 µM
TGI (ACHN renal): > 100 µM
TGI (MOLT-4 leukemia): > 100 µM
TGI (SK-MEL-2 melanoma): > 100 µM
TGI (NCI-H226 lung): 93.1 µM
TGI (HCT-15 colon): > 100 µM
TGI (PC-3 prostate): > 100 µM
TGI (UO-31 renal): 68.9 µM
TGI (SF-268 CNS): > 100 µM
TGI (CCRF-CEM leukemia): > 100 µM
TGI (SK-MEL-5 melanoma): 37 µM
TGI (UACC-62 melanoma): > 100 µM
TGI (HL-60(TB) leukemia): > 100 µM
TGI (UACC-257 melanoma): > 100 µM
TGI (NCI-H522 lung): > 100 µM
TGI (786-0 renal): > 100 µM
TGI (MDA-MB-231 breast): > 100 µM
TGI (NCI-H460 lung): > 100 µM
TGI (SK-OV-3 ovarian): > 100 µM
TGI (MDA-N): > 100 µM
TGI (SF-295 CNS): > 100 µM
TGI (MCF7 breast): > 100 µM
TGI (IGROV1 ovarian): > 100 µM
TGI (LOX IMVI melanoma): > 100 µM
TGI (HOP-62 NSCLC): > 100 µM
TGI (OVCAR-5 ovarian): > 100 µM
TGI (HOP-92 NSCLC): > 100 µM
TGI (COLO 205 colon): > 100 µM
TGI (OVCAR-4 ovarian): > 100 µM
TGI (SN12C renal): > 100 µM
TGI (RPMI-8226 leukemia): > 100 µM
TGI (A549 NSCLC): > 100 µM
TGI (SNB-19 CNS): > 100 µM
TGI (NCI-H23 lung): > 100 µM
TGI (CAKI-1 renal): > 100 µM
TGI (SF-539 CNS): 61.5 µM
TGI (T-47D breast): > 100 µM
TGI (HT29 colon): > 100 µM
TGI (KM12 colon): > 100 µM
TGI (EKVX NSCLC): > 100 µM
TGI (HCT-116 colon): > 100 µM
TGI (SNB-75 CNS): > 100 µM
TGI (SW-620 colon): > 100 µM
TGI (HS 578T breast): > 100 µM
TGI (MALME-3M melanoma): > 100 µM

O=C1CSC(c2ccccc2)N1c1ccc(-c2ccc(-n3c(-c4ccccc4)nc4ccccc4c3=O)cc2)cc1 (configuration not stated)
TGI (M14 melanoma): > 100 µM
TGI (NCI/ADR-RES ovarian): > 100 µM
TGI (K-562 leukemia): > 100 µM
TGI (TK-10 renal): > 100 µM
TGI (A498 renal): > 100 µM
TGI (OVCAR-3 ovarian): > 100 µM
TGI (MDA-MB-435): > 100 µM
TGI (BT-549 breast): > 100 µM
TGI (U251 CNS): > 100 µM
TGI (HCC-2998 colon): > 100 µM
TGI (OVCAR-8 ovarian): > 100 µM
TGI (DU-145 prostate): > 100 µM
TGI (SK-MEL-28 melanoma): > 100 µM
TGI (SR leukemia): > 100 µM
TGI (ACHN renal): > 100 µM
TGI (MOLT-4 leukemia): > 100 µM
TGI (SK-MEL-2 melanoma): > 100 µM
TGI (HCT-15 colon): > 100 µM
TGI (PC-3 prostate): > 100 µM
TGI (UO-31 renal): > 100 µM
TGI (SF-268 CNS): > 100 µM
TGI (CCRF-CEM leukemia): > 100 µM
TGI (SK-MEL-5 melanoma): > 100 µM
TGI (UACC-62 melanoma): > 100 µM
TGI (HL-60(TB) leukemia): > 100 µM
TGI (UACC-257 melanoma): > 100 µM
TGI (NCI-H522 lung): > 100 µM
TGI (786-0 renal): > 100 µM
TGI (MDA-MB-231 breast): > 100 µM
TGI (NCI-H460 lung): > 100 µM
TGI (SK-OV-3 ovarian): > 100 µM
TGI (MDA-N): > 100 µM
TGI (SF-295 CNS): > 100 µM
TGI (MCF7 breast): > 100 µM
TGI (IGROV1 ovarian): > 100 µM
TGI (LOX IMVI melanoma): > 100 µM
TGI (HOP-62 NSCLC): > 100 µM
TGI (OVCAR-5 ovarian): > 100 µM
TGI (HOP-92 NSCLC): > 100 µM
TGI (COLO 205 colon): > 100 µM
TGI (OVCAR-4 ovarian): > 100 µM
TGI (SN12C renal): > 100 µM
TGI (RPMI-8226 leukemia): > 100 µM
TGI (A549 NSCLC): > 100 µM
TGI (SNB-19 CNS): > 100 µM
TGI (NCI-H23 lung): > 100 µM
TGI (CAKI-1 renal): > 100 µM
TGI (T-47D breast): > 100 µM
TGI (HT29 colon): > 100 µM
TGI (KM12 colon): > 100 µM
TGI (EKVX NSCLC): > 100 µM
TGI (SW-620 colon): > 100 µM
TGI (HS 578T breast): > 100 µM
TGI (MALME-3M melanoma): > 100 µM
